Data: patent US20150164791A1, “CORNEAL SHAPING” (priority 2005, published 2015)

Columns and labels:
MMPs 1, 2 and 8 = conditions: rat corneas; cited from earlier work
MMP's 1, 2, 8 and 9 = conditions: topical; rat cornea; animals with epithelial defects and with intact epithelium; cited from earlier work
[1] = in vivo; cited from earlier work
[2] = tested on: matrix metalloproteinases; assay: Activation of matrix metalloproteinases by gatifloxacin (established by the inventor)

O=C(O)Cc1ccccc1Nc1c(Cl)cccc1Cl [Diclofenac]
expression of MMPs 1, 2 and 8 (MMPs 1, 2 and 8): induce expression

O=C(O)c1cn(C2CC2)c2cc(N3CCNCC3)c(F)cc2c1=O [ciprofloxacin]
MMP levels in corneal epithelium and anterior stroma (MMP's 1, 2, 8 and 9): increased

C[C@H]1c2cccc(O)c2C(O)=C2C(=O)[C@]3(O)C(O)=C(C(N)=O)C(=O)[C@@H](N(C)C)[C@@H]3[C@@H](O)[C@@H]21 [doxycyline, doxycycline]
corneal penetration [1]: penetrate the cornea well | tolerability [1]: well tolerated

COc1c(N2CCNC(C)C2)c(F)cc2c(=O)c(C(=O)O)cn(C3CC3)c12 (stereo not drawn) [gatifloxacin]
activation of matrix metalloproteinases [2]: capable of activating matrix metalloproteinases

O=C(c1ccccc1)c1ccc2n1CCC2C(=O)O (stereo not drawn) [ketorolac]
expression of MMPs 1, 2 and 8 (MMPs 1, 2 and 8): induce expression
